Measurements taken from patent publication US7754773B2, “Composition and synthesis of new reagents for inhibition of HIV replication” (priority 2005, dated 2010).

Key:
[1] = system: HIV-1 (X4-tropic HIV-1 variant (HIV-1LAI)); test: Dose-response of RT activity in HIV-1 infected H9 cells; format: cell-based; settings: H9 cells infected with HIV-1LAI; for RT activity / infectivity, dose response: 0, 1, 5, 10, 25 or 50 μM
Protocol: To evaluate the efficacy of Vif inhibitor 1 on RT activity, a dose-response experiment was conducted in infected H9 cells.
Briefly, H9 cells plated at 2×10^5 per well in a 24 well plate were treated overnight with DMSO, plus 0, 1, 5, 10, 25 or 50 μM Vif inhibitor 1 (all at 0.5% DMSO) then infected with HIV-1 (X4-tropic HIV-1 variant (HIV-1LAI)) at 2×10^5 cpm RT per well. All cells were maintained in the presence of DMSO or Vif inhibitor 1 for 14-21 days and viral replication monitored by measurement of reverse transcriptase activity in culture supernatants every second day. Calculation of % relative infectivity was determined on day 7, which was previously determined to be the peak of viral infectivity. Range correction involved fitting cpm data to a 2 parameter equation where the lower limit is 0, i.e. background correction, and the upper data limit is 100, i.e. the data is range corrected. Grafit software was used for the curve fit and calculation of the I.C.50 value.

Vif [2] = target: T1, Vif (Human immunodeficiency virus type 1 group M subtype B, UniProt P12504); test: Western blot of Vif in transfected 293T cell lysates; format: cell-based, HIV-1; settings: 293T cells, pNL-Luc-E-R-, pVSV-G, APOBEC3G-HA; 3.125-50 μM; 24 hours post-drug
T1 construct: pNL4-3 (Vif) was used at 50 fmol, and APOBEC3G at 15 fmol; expressed in transfected cells
Protocol: (§1) To determine the effect of Vif inhibitor 1 on expression of Vif and APOBC3G, 293T cells were transfected with pNL-Luc-E-R-, pVSV-G, and 15 fmoles APOBEC3G-HA. 4 hours post-transfection, the cells were treated with 3.125, 6.25, 12.5, 25, 50 μM Vif inhibitor 1 or DMSO equivalent as a control. Twenty-four hours post-drug addition, 293T total cell lysates (15 ug) were prepared, and protein lysates examined for APOBEC3G, Vif and, cyclin T1.

APOBEC3G [3] = test: Western blot of APOBEC3G in transfected 293T cell lysates; format: cell-based, human; settings: 293T cells, pNL-Luc-E-R-, pVSV-G, APOBEC3G-HA; 3.125-50 μM; 24 hours post-drug
Protocol: as §1

pNL-Luc-E-R- virus = test: Infectivity of virus from treated producer cells on 293T cells; format: cell-based, HIV-1; settings: 293T cells infected 48 hours with 1 ng virus; producer cells treated with 3.125-50 μM
Protocol: Infectivity was determined by infecting 293T cells for 48 hours with 1 ng virus produced from the producer cells in the experiments shown in FIG. 21A. The infectivity of the sample of virus produced without APOBEC3G was normalized to 100%, and data was representative of three independent experiments.

APOBEC3G [4] = test: APOBEC3G-HA level co-expressed with pNL4-3-LucE-R-, Western blot; format: cell-based, human; settings: 3.75, 7.5, 15 or 30 fmoles APOBEC3G-HA; 5 uM
Protocol: (§2) To evaluate the effect of Vif inhibitor 1 on levels of APOBEC3G and APOBEC3F proteins, a dose-response experiment was performed. pNL4-3-LucE-R- was co-expressed with 3.75, 7.5, 15, or 30 fmoles APOBEC3G-HA (or APOBEC3F-HA) in the absence (DMSO) or presence (5 uM) of Vif inhibitor 1. The pNL4-3-LucE-R- ΔVif with the same amounts of APOBEC3G or F in the presence of DMSO were used as controls. APOBEC3G or APOBEC3F expression was confirmed by Western blot using an α HA anti body, with cyclin T1 used as the internal control.

APOBEC3F = test: APOBEC3F-HA level co-expressed with pNL4-3-LucE-R-, Western blot; format: cell-based; settings: 3.75, 7.5, 15 or 30 fmoles APOBEC3F-HA; 5 uM
Protocol: as §2

Vif [5] = target: T1, Vif; test: Vif protein levels in H9 cells infected with pNL4-3Luc-E-R-; format: cell-based, HIV-1; settings: 12.5, 25 or 50 μM, 48 hours
Protocol: To evaluate the effect of Vif inhibitor 1 on levels of Vif protein, H9 cells were infected with pNL4-3Luc-E-R- using a spinoculation procedure with the virus equivalent of 1 μg pNL4-3 Luc-E-R- or Δ Vif pNL4-3 Luc-E-R- (as measured using p24 ELISA). […] H9 total cell lysates were then prepared, and 20 μg of lysate examined for the presence of cyclin T1, endogenous APOBEC3G, p24, and Vif, the latter two indicative of virus infection.

Vif [6] = target: T1, Vif; test: Vif protein levels in H9 versus MT4 cells infected with pNL4-3Luc-E-R-; format: cell-based, HIV-1; settings: 50 μM; 48 hours
Protocol: To determine whether there was a difference in the effect of Vif inhibitor 1 on Vif protein levels in permissive versus non-permissive cells, H9 and MT4 cells were infected using a spinoculation procedure with the virus equivalent of 1 μg pNL4-3 Luc-E-R- or Δ Vif pNL4-3 Luc-E-R- (as measured using p24 ELISA). Immediately following infection, H9 or MT4 cells were washed and incubated in complete RPMI medium with 10% FCS containing DMSO (0.5%) or 50 μM Vif inhibitor 1 (also 0.5% DMSO) for 48 hours. H9 or MT4 total cell lysates were then prepared, and 20 μg of lysate was examined for the presence of cyclin T1, endogenous APOBEC3G, p24, and Vif, the latter two being indicative of virus infection.

pNLA1-YFP (Vif activity) = target: T2, pNLA1-YFP (Vif activity) (Human immunodeficiency virus type 1 group M subtype B, UniProt P69723); test: pNLA1-YFP fluorescence in transfected 293T cells; format: cell-based, HIV-1; settings: 3.125-50 μM, with or without 15 fmoles pAPOBEC3G-HA, 24 hours
T2 construct: YFP; expressed in transfected cells; host or cells: 293T cells
Protocol: 293T cells transfected with 50 fmoles pNLA1-YFP or pNLA1-YFP with 15 fmoles pAPOBEC3G-HA were treated 4 HRS post-transfection with 3.125, 6.25, 12.5, 25, 50 μM Vif inhibitor 1 or DMSO equivalent (0). Twenty-four hours post-drug addition, 293T total cell lysates were prepared and normalized to equal protein amounts prior to being monitored, in triplicate, for YFP fluorescence. Curve fits for full dose responses of Vif inhibitor 1 are shown, and calculation of “% Vif activity” for concentration of compound Vif inhibitor 1 was determined using Grafit software.

T1 sequence (P12504 whole entry): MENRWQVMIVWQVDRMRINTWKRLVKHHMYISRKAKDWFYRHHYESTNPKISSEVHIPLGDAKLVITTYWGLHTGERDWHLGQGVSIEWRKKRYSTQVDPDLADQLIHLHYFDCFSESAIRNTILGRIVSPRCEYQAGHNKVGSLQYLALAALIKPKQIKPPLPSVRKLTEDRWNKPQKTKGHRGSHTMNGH
T2 sequence (P69723 whole entry): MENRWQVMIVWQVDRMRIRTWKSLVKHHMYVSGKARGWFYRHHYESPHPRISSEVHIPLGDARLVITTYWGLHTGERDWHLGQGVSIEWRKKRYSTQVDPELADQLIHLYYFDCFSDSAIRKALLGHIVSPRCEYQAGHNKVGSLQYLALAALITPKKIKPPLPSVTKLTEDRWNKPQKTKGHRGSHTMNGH

SMILES: COc1ccccc1NC(=O)c1ccccc1Sc1ccc([N+](=O)[O-])cc1 [Vif inhibitor 1, 2-(4-Nitrophenylthio)-N-(2-methoxyphenyl)benzamide]
- RT activity / infectivity, dose response [1]: inhibits RT activity in a dose dependent manner
- RT activity / infectivity, dose response ([1]; listed as Vif Inhibitor 1): dose-dependent decrease in infectivity
- IC50 ([1]; Human immunodeficiency virus 1, 168 h, 0-50 μM, determined on day 7, read-out: I.C.50 of RT activity (% relative infectivity)): ~6.4 µM
- Vif expression (Vif [2]): decreases Vif expression
- APOBEC3G expression (APOBEC3G [3]): increases APOBEC3G expression
- Infectivity of virus produced from treated producer cells (pNL-Luc-E-R- virus): decrease infectivity in a dose-dependent manner
- APOBEC3G level (APOBEC3G [4]): increases
- APOBEC3F level (APOBEC3F): increases
- Levels of Vif protein in H9 cells (Vif [5]): significantly reduces levels of Vif protein
- Levels of Vif protein, non-permissive H9 versus permissive MT4 cells (Vif [6]): significantly reduces levels of Vif protein in non-permissive H9 cells compared to permissive MT4 cells
- pNLA1-YFP fluorescence (% Vif activity) (pNLA1-YFP (Vif activity)): dose-dependent decrease in pNLA1-YFP only in the presence of APOBEC3G
